Test results taken from patent publication US5387709A, “Substituted sulfonamides, process of preparation and medicines containing same” (Lipha Lyonnaise Industrielle Pharmaceutique, priority 1990, dated 1995).

What was measured:
platelets of guinea-pig = assay: Inhibition of the platelet aggregation induced by U46619 (BORN test), guinea-pig platelets; assay type: cell-based; details: Cavia porcellus, Platelet, read-out: PLATELET AGGREGATION GUINEA-PIG IC 50
Excerpt: (A) Inhibition of the platelet aggregation induced by U46619, a stable analogue of TXA2 (9,11-dideoxy-11α,9α-epoxymethanoprostaglandine F2 α):
The tests determine a concentration of compound which inhibits at 50% (CI50) a liminar aggregation induced by U46619. The activities of the compounds of the present invention are given in example 108.
(§1) The products of examples 1 to 107 have been tested for platelet aggregation on guinea-pig and on the contraction of the aorta in rat as described previously.

rat aorta = assay: Inhibition of the U46619 induced rat aorta vasoconstriction; assay type: cell-based; details: Rattus norvegicus, contraction by U46619 (142 nM), rat thoracic aorta, 37° C.; read-out: VASOCONSTRICTION RAT AORTA IC 50
Experimental: (B) Inhibition of the U46619 induced rat aorta vasoconstriction:
male rats weighing about 300 g are put to death by euthanasia; the thoracic aorta is rapidly taken out. A sample of about 1 cm is cut into a spiral, and placed in a vat containing 20 ml of nutrient medium (Krebs-Henseleit) kept a 37° C. and oxygenated (O2 95%, CO2 5%). The contractions are recorded with an isotonic strain gauge. After a rest of 45 mn, supramaximum contractions are provoked by the addition of an analogue of TXA2 (U46619: 142 nM) to the survival medium. A plateau is generally reached after 10 mn of contact, the latter not exceeding 25 mn. A rest of 30 mn and a plurality of rinses take place after each contraction. The products are added 10 mn after U46619 and allowed to rest 15 mn, after which delay the inhibition is measured. The inhibitory concentration 50 (IC) is determined for each compound studied and on a minimum of 3 aortas. The activities of the compounds of the present invention are described in example 108.
as §1

Compound | IC50 (platelets of guinea-pig) | IC50 (rat aorta)
O=S(=O)(NCC1(Cc2ccc(CCO)cc2)CCCC1)c1cccc(Cl)c1 [Example 33, 3-Chloro-N-[[1-[[4-(2-hydroxyethyl)phenyl]methyl]cyclopentyl]methyl]benzenesulfonamide] | > 5 µM | > 1 µM
CC(=O)c1ccc(S(=O)(=O)NCC2(Cc3ccc(CCO)cc3)CCCC2)cc1 [Example 43, 4-Acetyl-N-[[1-[[4-(2-hydroxyethyl)phenyl]methyl]cyclopentyl]methyl]-benzenesulfonamide] | > 5 µM | > 1 µM
O=C(O)Cc1ccc(CC2(CNS(=O)(=O)c3cccc(Cl)c3)CCCC2)cc1 [Example 52, 4-[[1-[[[(3-Chlorophenyl)sulfonyl]amino]methyl]cyclopentyl]methyl]benzeneacetic acid] | > 5 µM | > 1 µM
O=C(O)Cc1ccc(CC2(CNS(=O)(=O)c3cccc(C(F)(F)F)c3)CCCC2)cc1 [Example 56, 4-[[1-[[[(3-Trifluoromethylphenyl)sulfonyl]amino]methyl]cyclopentyl]methyl]benzeneacetic acid] | 5 µM | 1 µM
O=C(O)Cc1ccc(CC2(CNS(=O)(=O)c3cccc([N+](=O)[O-])c3)CCCC2)cc1 [Example 58, 4-[[1-[[[(3-Nitrophenyl)sulfonyl]amino]methyl]cyclopentyl]methyl]benzeneacetic acid] | 6.3 µM | 1 µM
CC(C)c1ccc(S(=O)(=O)NCC2(Cc3ccc(CC(=O)O)cc3)CCCC2)cc1 [Example 60, 4-[[1-[[[[4-(1-Methylethyl)phenyl]sulfonyl]amino]methyl]cyclopentyl]methyl]benzeneacetic acid] | > 5 µM | > 1 µM
CC(C)(C)c1ccc(S(=O)(=O)NCC2(Cc3ccc(CC(=O)O)cc3)CCCC2)cc1 [Example 61, 4-[[1-[[[[4-(1,1-Dimethylethyl)phenyl]sulfonyl]amino]methyl]cyclopentyl]methyl]benzeneacetic acid] | > 5 µM | > 1 µM
CC(=O)c1ccc(S(=O)(=O)NCC2(Cc3ccc(CC(=O)O)cc3)CCCC2)cc1 [Example 62, 4-[[1-[[[(4-Acetylphenyl)sulfonyl]amino]methyl]cyclopentyl]methyl]benzeneacetic acid] | 3 µM | 0.75 µM
CS(=O)(=O)c1ccc(S(=O)(=O)NCC2(Cc3ccc(CC(=O)O)cc3)CCCC2)cc1 [Example 63, 4-[[1-[[[(4-Methylsulfonylphenyl)sulfonyl]amino]methyl]cyclopentyl]methyl]benzeneacetic acid] | > 5 µM | > 1 µM
Cc1cnc2c(S(=O)(=O)NCC3(Cc4ccc(CC(=O)O)cc4)CCCC3)cccc2c1 [Example 66, 4-[[1-[[[(3-Methylquinol-8-yl)sulfonyl]amino]methyl]cyclopentyl]methyl]benzeneacetic acid] | > 5 µM | > 1 µM
O=C(O)Cc1ccc(CC2(CNS(=O)(=O)c3ccc(Cl)s3)CCCC2)cc1 [Example 68, 4-[[1-[[[(5-Chlorothien-2-yl)sulfonyl]amino]methyl]cyclopentyl]methyl]benzeneacetic acid] | 4 µM | 0.4 µM
O=C(O)Cc1ccc(CC2(CNS(=O)(=O)c3c[nH]cn3)CCCC2)cc1 [Example 69, 4-[[1-[[[(Imidazol-4-yl)sulfonyl]amino]methyl]cyclopentyl]methyl]benzeneacetic acid] | > 5 µM | > 1 µM
O=C(O)Cc1ccc(CC2(CNS(=O)(=O)c3ccco3)CCCC2)cc1 [Example 70, 4-[[1-[[[(fur-2-yl)sulfonyl]amino]methyl]cyclopentyl]methyl]benzeneacetic acid] | > 5 µM | 1 µM
O=C(O)Cc1ccc(CC2(CNS(=O)(=O)c3ccc(O)cc3)CCCC2)cc1 [Example 71, 4-[[1-[[[(4-Hydroxyphenyl)sulfonyl]amino]methyl]cyclopentyl]methyl]benzeneacetic acid] | 3 µM | 0.04 µM
O=C(Cc1ccc(CC2(CNS(=O)(=O)c3ccc(Cl)cc3)CCCC2)cc1)N1CCOCC1 [Example 74, 4-Chloro-N-[[1-[[4-[2-(morpholin-4-yl)-2-oxoethyl]phenyl]methyl]cyclopentyl]methyl]benzenesulfonamide] | > 5 µM | > 1 µM
NC(=O)Cc1ccc(CC2(CNS(=O)(=O)c3ccc(Cl)cc3)CCCC2)cc1 [Example 75, 4-[[1-[[[(4-Chlorophenyl)sulfonyl]amino]methyl]cyclopentyl]methyl]benzeneacetamide] | > 5 µM | > 1 µM
O=C(O)CCNC(=O)Cc1ccc(CC2(CNS(=O)(=O)c3ccc(Cl)cc3)CCCC2)cc1 [Example 76, 3-[[2-[4-[[1-[[[(4-Chlorophenyl)sulfonyl]amino]methyl]cyclopentyl]methyl]phenyl]-1-oxoethyl]amino]propanoic acid] | 2.9 µM | > 1 µM

Continued by falling IC50 (platelets of guinea-pig), values first:

IC50 (platelets of guinea-pig) | IC50 (rat aorta) | Compound
2.9 µM | 0.1 µM | O=C(O)Cc1ccc(CC2(CNS(=O)(=O)c3ccc(C(F)(F)F)cc3)CCCC2)cc1 [Example 55, 4-[[1-[[[(4-Trifluoromethylphenyl)sulfonyl]amino]methyl]cyclopentyl]methyl]benzeneacetic acid]
2.6 µM | 0.13 µM | O=C(O)Cc1ccc(CC2(CNS(=O)(=O)c3ccc(OC(F)(F)F)cc3)CCCC2)cc1 [Example 64, 4-[[1-[[[(4-Trifluoromethoxyphenyl)sulfonyl]amino]methyl]cyclopentyl]methyl]benzeneacetic acid]
2.5 µM | ≥ 1 µM | O=C1CCC(c2ccc(CC3(CNS(=O)(=O)c4ccc(Cl)cc4)CCCC3)cc2)=NN1 [Example 31, 4-Chloro-N-[[1-[[4-(4,5-dihydro-3-oxo-2H-pyridazin-6-yl)phenyl]methyl]cyclopentyl]methyl]-benzenesulfonamide]
2.4 µM | > 1 µM | CCOC(=O)Cc1ccc(CC2(CNS(=O)(=O)c3ccc(Cl)cc3)CCCC2)cc1 [Example 77, Ethyl 4-[[1-[[[(4-chlorophenyl)sulfonyl]amino]methyl]cyclopentyl]methyl]benzeneacetate]
1.8 µM | 0.4 µM | O=C(O)Cc1ccc(CC2(CNS(=O)(=O)c3ccccc3Cl)CCCC2)cc1 [Example 32, 4-[[1-[[[(2-Chlorophenyl)sulfonyl]amino]methyl]cyclopentyl]methyl]benzeneacetic acid]
1.5 µM | 0.28 µM | O=C(O)Cc1ccc(CC2(CNS(=O)(=O)c3cccs3)CCCC2)cc1 [Example 67, 4-[[1-[[[(Thien-2-yl)sulfonyl]amino]methyl]cyclopentyl]methyl]benzeneaceticacid]
1.4 µM | 0.08 µM | O=C(O)Cc1ccc(CC2(CNS(=O)(=O)c3ccc(Cl)cc3Cl)CCCC2)cc1 [Example 59, 4-[[1-[[[(2,4-Dichlorophenyl)sulfonyl]amino]methyl]cyclopentyl]methyl]benzeneacetic acid]
1.1 µM | 0.04 µM | O=C(O)Cc1ccc(CC2(CNS(=O)(=O)c3ccc(I)cc3)CCCC2)cc1 [Example 54, 4-[[1-[[[(4-Iodophenyl)sulfonyl]amino]methyl]cyclopentyl]methyl]benzeneacetic acid]
0.92 µM | 1 µM | O=C(O)CCC(=O)c1ccc(CC2(CNS(=O)(=O)c3ccc(Cl)cc3)CCCC2)cc1 [Example 30, 4-[4-[[1-[[[(4-Chlorophenyl)sulfonyl]amino]methyl]cyclopentyl]methyl]phenyl]-4-oxobutanoic acid]
0.7 µM | 0.2 µM | O=C(O)Cc1ccc(CC2(CNS(=O)(=O)c3ccc(Cl)cc3)CCCCCC2)cc1 [Example 73, 4-[[1-[[[(4-Chlorophenyl]sulfonyl]amino]methyl]cycloheptyl]methyl]benzeneacetic acid]
0.69 µM | 0.1 µM | N#Cc1ccc(S(=O)(=O)NCC2(Cc3ccc(CC(=O)O)cc3)CCCC2)cc1 [Example 57, 4-[[1-[[[(4-Cyanophenyl)sulfonyl]amino]methyl]cyclopentyl]methyl]benzeneacetic acid]
0.64 µM | 0.04 µM | O=C(O)Cc1ccc(CC2(CNS(=O)(=O)c3ccc(Cl)cc3)CC2)cc1 [Example 72, 4-[[1-[[[(4-Chlorophenyl)sulfonyl]amino]methyl]cyclopropyl]methyl]benzeneacetic acid]
0.35 µM | 0.27 µM | COc1ccc(S(=O)(=O)NCC2(Cc3ccc(CC(=O)O)cc3)CCCC2)cc1 [Example 65, 4-[[1-[[[(4-Methoxyphenyl)sulfonyl]amino]methyl]cyclopentyl]methyl]benzeneacetic acid]
0.16 µM | 0.01 µM | O=C(O)Cc1ccc(CC2(CNS(=O)(=O)c3ccc(Br)cc3)CCCC2)cc1 [Example 53, 4-[[1-[[[(4-Bromophenyl)sulfonyl]amino]methyl]cyclopentyl]methyl]benzeneacetic acid]
